These results are taken from US10828315B2 (Madrigal Pharmaceuticals, Inc., priority 2013, dated 2020).

Molecules are shown by their SMILES. Like-named read-outs stand apart in the source and are kept apart here. Bounds are passed on as bounds.

Data set [1] relates to HER2. Description: HER2 degradation assay with BT-474 cell line (Example 12, FACS). The data set is classed as cell-based, human.
Data set [2] relates to HER2. Description: HER2 degradation in BT-474 cells (Example 3, Methods 1 and 2). The class given is cell-based, human. The text has this:
This example illustrates how a HER2 degradation assay may be used as a test to determine and select Hsp90-targeting moieties suitable for use in SDC-TRAPs of the invention, and further illustrates the ability of SDC-TRAPs to target cells preferentially expressing Hsp90. Such a test may further be used to determine the Hsp90 binding ability of SDC-TRAPs of the invention, as well as through competitive binding assays and cell-based Hsp90 client protein degradation assays known in the art.
After treatment, each cytoplasmic sample is prepared from 1×10^6 cells by incubation of cell lysis buffer (#9803, Cell Signaling Technology) on ice for 10 minutes. The resulting supernatant used as the cytosol fractions is dissolved with sample buffer for SDS-PAGE and run on a SDS-PAGE gel, blotted onto a nitrocellulose membrane by using semi-dry transfer. Non-specific binding to nitrocellulose is blocked with 5% skim milk in TBS with 0.5% Tween at room temperature for 1 hour, then probed with anti-HER2/ErB2 mAb (rabbit IgG, #2242, Cell Signaling) and anti-Tubulin (T9026, Sigma) as housekeeping control protein. HRP-conjugated goat anti-rabbit IgG (H+L) and HRP-conjugated horse anti-mouse IgG (H+L) are used as secondary Ab (#7074#7076, Cell Signaling) and LumiGLO reagent, 20× Peroxide (#7003, Cell Signaling) is used for visualization. The Hsp90 client protein HER2 is degraded when cells are treated with Hsp90-targeting moieties or SDC-TRAPs of the invention.
BT-474 cells are plated in the interior 60 wells of a 96 well black clear bottom plate (20,000 cells/well) in DMEM medium, with DMEM media in the surrounding 36 wells, and incubated at 37° C. with 5% CO2 overnight. On the second day, concentration response curve source plates are produced (10 point, 3-fold dilution of compounds in DMSO) followed by a 1:30 dilution in an intermediate dilution plate containing DMEM. Compound is transferred from the intermediate plate to the cell plate at a dilution of 1:10. The cells are then incubated at 37° C. with 5% CO2 for 24 hours.
Cells are then fixed in 4% phosphate-buffered paraformaldehyde for 30 minutes at room temperature and then permeabilized by washing five times with 0.1% Triton X-100 in PBS for 5 minutes at room temperature on a shaker. […] Cells are washed five times with 0.1% Tween-20 in PBS for 5 minutes at room temperature on a shaker and incubated with fluorescently-labeled secondary antibody (LI-COR, #926-32211) diluted 1:1000 in blocking buffer, and DRAQ5 nuclear stain (Biostatus Limited, # DRAQ5) diluted 1:10,000, at room temperature on a shaker for 1 hour. Cells are washed 5 times with 0.1% Tween-20 in PBS for 5 minutes at room temperature on a shaker and imaged on a LI-COR Odyssey imaging station. The raw data is normalized to DRAQ5 and the HER2 EC50 is calculated using XLfit™.

Data set [3] can be described thus: Mouse plasma stability protocol, up to 1 h (Examples 16-18). The settings on record: for % Remaining (1 h): % Remaining of parent after 1 h incubation in mouse plasma at 37° C. (10 μM); for % Remaining (1 h, 37° C.): mouse plasma.
Description: (§1) 150 ng/mL solution of SDC-TRAP-0002 in methanol was prepared using the internal standard spiking solution. This solution was used to precipitate all plasma samples in the study. 200 μL was pipetted into a 96 deepwell plate over dry ice. 10 μL of 1 mM stock in DMSO was added to a 1.5 mL microfuge tube, then 990 μL of plasma. Samples were mixed by vortex, then 50 μL of each sample was added in triplicate to a 96-well plate containing internal standard solution. This was designated the 0 hour time point sample. 250 μL of the remaining plasma sample was added to each of four 96 deepwell plates—one per time point. Samples were incubated at 37° C. with gentle shaking for 0.25, 0.5, and 1 hour. After each time point, one plate of each sample was removed from the shaker and placed on wet ice for approximately 2 minutes. 50 μL at plasma aliquots (in triplicate) were added to the deepwell plate containing internal standard solution. After the last time point was extracted, the 96 deepwell plate was vortexed, then centrifuged at 2-8° C. 150 μL of supernatant was collected and 25 μL at of water was added. Samples were mixed and analyzed by LC-MS/MS.
(§2) 990 μL mouse plasma aliquots from a common stock were spiked with 10 μL of 1 mM stock of one of seven SDC-TRAP samples identified in the table below. Each sample was mixed and divided into 250 μL aliquots, each representing time points 0, 15 minutes, 30 minutes or 1 hour. At the prescribed time point, 3×50 μL samples were each mixed with 200 μL of methanol containing internal standard and held on dry ice until all time point samples were extracted. The samples collectively were vortex mixed for 1.5 minutes at 1500 rpm, then centrifuged at 4400 rpm for 10 minutes at 8° C.
For data set [4], the system named is human breast cancer cell line BT-474. Description: Cytotoxicity assay (CellTiter-Glo, 72 h), BT-474. The data set is classed as cell-based. The settings on record: read-out: Cytotoxicity (IC50, nM) BT-474.
Description: (§3) Cytotoxicity of SDC-TRAP molecules was determined in three cancer cell lines. […] 80 μL of CellTiter-Glo was added to each well, followed by room temperature incubation in the dark for 15 minutes. Cell was determined by luminescence. IC50 was calculated using XLfit™ software.
Data set [5] is described as follows: Artificial membrane permeability assay (PAMPA). The settings on record: incubation 5 h, first table. (In general: PAMPA measures passive passage across an artificial lipid membrane.)
Data set [6] concerns human urinary bladder cancer cell line SW780. In words: Cytotoxicity assay (CellTiter-Glo, 72 h), SW780. The data set is classed as cell-based. The settings on record: read-out: Cytotoxicity (IC50, nM) SW-780. For orientation: In ATP-based viability assays light output follows the ATP content of the culture.
Description: as §3
For data set [7] the following is noted: mouse, in vivo.
Description: Using the 10 mM stock solutions of the SDC-TRAP molecule and its Hsp90i binding moiety and effector moiety in DMSO, spiking solutions were prepared at 0.025, 0.05, 0.1, 0.5, 1, 5, 10, 50, 100, 250, and 500 μM in DMSO. 5 μL of each spiking solution was added to a 96-deep well plate.
Quality control standards were prepared from 5 μL of 0.1, 1, and 10 μM calibration standard spiking solution added in triplicate into 96-deep well plate and adding 50 μL of matrix (plasma or homogenized tumor).
To prepare test samples, test plasma was diluted as needed using blank plasma.
Tumor samples were pulverized in liquid nitrogen, weighed, and homogenized in PBS at 5× volume to sample weight. 50 μL of unknown plasma or homogenized tumor sample was mixed with 5 μL of DMSO. The samples were extracted by precipitating calibration standards, QC standards, and unknown samples with 200 μL of internal standard solution. The samples were mixed by vortex at room temperature for approximately 1.5 minutes, then centrifuge at 2-8° C. 150 μL of supernatant was collected and 25 μL of water added. Samples were mixed and analyzed by LC-MS/MS.
Samples of plasma, heart and tumor were excised from a euthanized mouse, homogenized in PBS at 5 times tissue weight and diluted in 5 μL DMSO/50 μL sample. Prior to analysis, 55 μL samples and calibration standards were precipitated in 200 μL methanol in 96-well plates. Samples were mixed on a vortex mixer for 1.5 minutes at 1500 rpm at room temperature, then centrifuged at 4400 rpm for 10 minutes at 8° C. 150 μL of each supernatant was transferred to a well of a new 96-well plate, and 25 μL of water was added and mixed with the sample. […] For the analysis of samples from female SCID mice, a gradient of solvent A (water/0.1% formic acid) and B (acetonitrile/0.1% formic acid) was used as in Table 2 below.
Various SDC-TRAP molecules and appropriate controls were administered to mice and after various time points the plasma and tumor concentration of these molecules was determined.
Data set [8] concerns human urinary bladder cancer cell line RT-112. In words: Cytotoxicity assay (CellTiter-Glo, 72 h), RT-112. The class given is cell-based. The settings on record: read-out: Cytotoxicity (IC50, nM) RT-112.
Description: as §3
For data set [9] the following is noted: mouse, plasma, 1 h.
Description: as §1, §2

`CC(C)c1cc(-c2nnc(O)n2-c2ccc3c(ccn3CCN(C)C(=O)CCCc3nc4cc(N(CCCl)CCCl)ccc4n3C)c2)c(O)cc1O` [SDC-TRAP-0039, (5-(bis(2-chloroethyl)amino)-1-methyl-1H-benzo[d]imidazol-2-yl)-N-(2-(5-(3-(2,4-dihydroxy-5-isopropylphenyl)-5-hydroxy-4H-1,2,4-triazol-4-yl)-1H-indol-1-yl)ethyl)-N-methylbutanamide]: the IC50 with HER2 [1] (BT-474 cells, overnight) came out at 2920 nM; in the data set with HER2 [2], 2940 nM.

For the molecule `CCc1c2c(nc3ccc(O)cc13)-c1cc3c(c(=O)n1C2)COC(=O)C3(CC)OC(=O)CCC(=O)N1CCC(Cc2ccc(-n3c(O)nnc3-c3cc(C(C)C)c(O)cc3O)cc2)CC1` (centres unmarked) [SDC-TRAP-0042, 4,11-diethyl-9-hydroxy-3,14-dioxo-3,4,12,14-tetrahydro-1H-pyrano[3′,4′:6,7]indolizino[1,2-b]quinolin-4-yl 4-(4-(4-(3-(2,4-dihydroxy-5-isopropylphenyl)-5-hydroxy-4H-1,2,4-triazol-4-yl)benzyl)piperidin-1-yl)-4-oxobutanoate], the midpoint of inhibition with HER2 [1], the IC50, lay at 1060 nM. Besides, in data set [3], the “% Remaining (1 h)” value is 73.9% and the “% Remaining (1 h, 37° C.)” value is 74%. Also, half-maximal inhibition in the data set on HER2 [2] (IC50) was put at 1060 nM.

`C=CCNC1=C2C[C@@H](C)C[C@H](OC)[C@H](O)[C@@H](C)/C=C(\C)[C@H](OC(N)=O)[C@@H](OC)/C=C\C=C(/C)C(=O)NC(=CC1=O)C2=O` [17-AAG, reference compound]: the “degradation of HER2 (western blot)” value in the data set with HER2 [2] (0.5 μM, overnight) is on record as “partial degradation of HER2”.

Turning to `Nc1cccc2c1CN(C1CCC(=O)NC1=O)C2=O` (centres unmarked) [Lenalidomide, lenalidomide, reference compound], the IC50 in data set [4] (BT-474, 72 hours) is above 10000 nM; in data set [6] (SW780, 72 hours) it was above 10000 nM; in [8] (RT-112, 72 hours), above 10000 nM. Besides, the “Mass Retention” value in data set [5] was determined as 26.0%. Moreover, the “Tumor Conc.” value in [7] (female, SCID, 24 h) is given as 0.0574 nmol/g of tissue; in [7] (female, SCID, 48 h), 0.0143 nmol/g of tissue; in data set [7], “BQL”. In data set [7], the “Plasma Conc.” value is on record as “BQL”.

In the case of `CC(C)c1cc(-c2nnc(O)n2-c2ccc3c(ccn3CCOCCN(C)C(=O)CCCc3nc4cc(N(CCCl)CCCl)ccc4n3C)c2)c(O)cc1O` [SDC-TRAP-0040, 4-(5-(bis(2-chloroethyl)amino)-1-methyl-1H-benzo[d]imidazol-2-yl)-N-(2-(2-(5-(3-(2,4-dihydroxy-5-isopropylphenyl)-5-hydroxy-4H-1,2,4-triazol-4-yl)-1H-indol-1-yl)ethoxy)ethyl)-N-methylbutanamide], the IC50 with HER2 [1] (BT-474 cells, overnight) is 4740 nM; in the data set on HER2 [2], 4740 nM.

In the case of `CCc1c2c(nc3ccc(O)cc13)-c1cc3c(c(=O)n1C2)COC(=O)C3(CC)OC(=O)N(C)CCn1ccc2cc(-n3c(O)nnc3-c3cc(C(C)C)c(O)cc3O)ccc21` (centres unmarked) [SDC-TRAP-0038, 4,11-diethyl-9-hydroxy-3,14-dioxo-3,4,12,14-tetrahydro-1H-pyrano[3′,4′:6,7]indolizino[1,2-b]quinolin-4-yl (2-(5-(3-(2,4-dihydroxy-5-isopropylphenyl)-5-hydroxy-4H-1,2,4-triazol-4-yl)-1H-indol-1-yl)ethyl)(methyl)carbamate], the IC50 in the data set on HER2 [1] and with HER2 [2] was above 5000 nM each time.

Turning to `CCc1c2c(nc3ccc(O)cc13)-c1cc3c(c(=O)n1C2)COC(=O)C3(CC)OC(=O)CCC(=O)N1CCN(Cc2ccc(-n3c(O)nnc3-c3cc(C(C)C)c(O)cc3O)cc2)CC1` (centres unmarked) [SDC-TRAP-0043, 4,11-diethyl-9-hydroxy-3,14-dioxo-3,4,12,14-tetrahydro-1H-pyrano[3′,4′:6,7]indolizino[1,2-b]quinolin-4-yl 4-(4-(4-(3-(2,4-dihydroxy-5-isopropylphenyl)-5-hydroxy-4H-1,2,4-triazol-4-yl)benzyl)piperazin-1-yl)-4-oxobutanoate], the IC50 with HER2 [1] and in the data set on HER2 [2] was 2140 nM in each case.

As for `CCNC(=O)c1nnc(-c2cc(C(C)C)c(O)cc2O)n1-c1ccc2c(c1)CN(Cc1cc(OC)c(OC(=O)Nc3cccc4c3CN(C3CCC(=O)NC3=O)C4=O)c(OC)c1)C2` (centres unmarked) [SDC-TRAP-0196, 4-((5-(3-(2,4-dihydroxy-5-isopropylphenyl)-5-(ethylcarbamoyl)-4H-1,2,4-triazol-4-yl)isoindolin-2-yl)methyl)-2,6-dimethoxyphenyl (2-(2,6-dioxopiperidin-3-yl)-1-oxoisoindolin-4-yl)carbamate], the IC50 in [4] (BT-474, 72 h) is 17 nM; with HER2 [1], 89 nM; in data set [6] (SW780, 72 h), above 10000 nM; in [8] (RT-112, 72 h), 31 nM. The “Mass Retention” value in data set [5] is listed as 22.3%. For the same molecule, the “% Remaining (1 h)” value in data set [3] is 66.2%.

The molecule `CCc1c2c(nc3ccc(O)cc13)-c1cc3c(c(=O)n1C2)COC(=O)C3(CC)OC(=O)N1CCN(Cc2ccc(-n3c(O)nnc3-c3cc(C(C)C)c(O)cc3O)cc2)CC1` (centres unmarked) [SDC-TRAP-0047, 4,11-diethyl-9-hydroxy-3,14-dioxo-3,4,12,14-tetrahydro-1H-pyrano[3′,4′:6,7]indolizino[1,2-b]quinolin-4-yl 4-(4-(3-(2,4-dihydroxy-5-isopropylphenyl)-5-hydroxy-4H-1,2,4-triazol-4-yl)benzyl)piperazine-1-carboxylate] gave an IC50 with HER2 [1] of 875 nM. Further, in [3], the “% Remaining (1 h)” value turned out to be 88.9% and the “% Remaining (1 h, 37° C.)” value is given as 89%. Further, half-maximal inhibition in the data set on HER2 [2] (IC50) was put at 875 nM.

On to `CC(C)c1cc(-c2nnc(O)n2-c2ccc(CN3CCN(C(=O)c4ccc(CCc5c[nH]c6nc(N)[nH]c(=O)c56)cc4)CC3)cc2)c(O)cc1O` [SDC-TRAP-0068, 2-amino-5-(4-(4-(4-(3-(2,4-dihydroxy-5-isopropylphenyl)-5-hydroxy-4H-1,2,4-triazol-4-yl)benzyl)piperazine-1-carbonyl)phenethyl)-3H-pyrrolo[2,3-d]pyrimidin-4(7H)-one], for which the IC50 came to 70 nM in data set [4] (BT-474, 72 hours); 202 nM in data set [6] (SW780, 72 hours); 74 nM in data set [8] (RT-112, 72 hours). In addition, the “% Remaining (1 h)” value in data set [9] (10 µM) and in data set [9] (10 μM) was 96.5% in each case.

For the molecule `CCc1c2c(nc3ccc(OC(=O)N4CCC(Cc5ccc(-n6c(O)nnc6-c6cc(C(C)C)c(O)cc6O)cc5)CC4)cc13)-c1cc3c(c(=O)n1C2)COC(=O)C3(O)CC` (centres unmarked) [SDC-TRAP-0031, 4,11-diethyl-4-hydroxy-3,14-dioxo-3,4,12,14-tetrahydro-1H-pyrano[3′,4′:6,7]indolizino[1,2-b]quinolin-9-yl 4-(4-(3-(2,4-dihydroxy-5-isopropylphenyl)-5-hydroxy-4H-1,2,4-triazol-4-yl)benzyl)piperidine-1-carboxylate], the results for the IC50 with HER2 [1] and in the data set with HER2 [2] were 1270 nM and 2920 nM, respectively.

By IC50 is commonly meant the concentration that inhibits the measured activity by half.
